In PubChem BioAssay AID330 (DTP/NCI, 2004):
“And” between values parts separate entries of the source, which are not always exact repeats. Identical values can stand only once. Inconclusive results and toxic doses are left out. How the source made its calls: active means survival T/C of 150% or more; inactive means T/C below 125% in these data.

System: P388 leukemia ip, CD2F1 mice, survival T/C
Test: NCI In Vivo Anticancer Drug Screen. Data for tumor model P388 Leukemia (intraperitoneal) in CD2F1 (CDF1) mice
Conditions: endpoint: median survival time, higher = longer survival
How it was run: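 Mice carrying the transplanted tumor received test compound or vehicle. Survival was recorded in each group, and the value is the treated-group measurement divided by that of the vehicle-treated control group.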

[1] = dose: 25.0 mg/kg/injection, schedule: Q01DX005 (ip), vehicle: Klucel (hydroxypropylcellulose) (HPC)
[2] = dose: 50.0 mg/kg/injection, schedule: Q01DX005 (ip), vehicle: Klucel (hydroxypropylcellulose) (HPC)
[3] = dose: 100.0 mg/kg/injection, schedule: Q01DX005 (ip), vehicle: Klucel (hydroxypropylcellulose) (HPC)
[4] = dose: 200.0 mg/kg/injection, schedule: Q01DX005 (ip), vehicle: Klucel (hydroxypropylcellulose) (HPC)
[5] = dose: 50.0 mg/kg/injection, schedule: Q01DX009 (ip), vehicle: saline with Tween-80
[6] = dose: 100.0 mg/kg/injection, schedule: Q01DX009 (ip), vehicle: saline with Tween-80
[7] = dose: 200.0 mg/kg/injection, schedule: Q01DX009 (ip), vehicle: saline with Tween-80
[8] = dose: 60.0 mg/kg/injection, schedule: Q01DX005 (ip), vehicle: saline with Tween-80
[9] = dose: 240.0 mg/kg/injection, schedule: Q01DX005 (ip), vehicle: saline with Tween-80

Measured: T/C

O=C1C(Cl)=C(NC(=O)C2CCCCC2)C(=O)C(Cl)=C1NC(=O)C1CCCCC1
inactive: [1] 90 % of control | [2] 90 % of control | [3] 88 % of control | [4] 89 % of control

CCC(=O)Nc1nnc(SCCCCCCCCCCCCSc2nnc(NC(=O)CC)s2)s1
inactive: [2] 96 % of control | [3] 88 % of control | [4] 87 % of control

CCOC(=O)C1=C(C)O/C(=C/c2ccco2)C1=O
inactive: dose: 25.0 mg/kg/injection, schedule: Q01DX009 (ip), vehicle: Klucel (hydroxypropylcellulose) (HPC) 103 % of control | dose: 50.0 mg/kg/injection, schedule: Q01DX009 (ip), vehicle: Klucel (hydroxypropylcellulose) (HPC) 109 % of control | dose: 100.0 mg/kg/injection, schedule: Q01DX009 (ip), vehicle: Klucel (hydroxypropylcellulose) (HPC) 110 % of control and 111 % of control

COc1cc(Cl)ccc1NC(=O)Oc1cc(C)c(I)cc1C
inactive: [5] 104 % of control | [6] 100 % of control | [7] 88 % of control

CCc1nc(N)nc(N)c1-c1ccc(N(C)Cc2ccccc2)c(N)c1
inactive: [2] 96 % of control | [3] 93 % of control | [4] 103 % of control

N/C(=C\S(=O)(=O)c1ccccc1)C12CC3CC(CC(C3)C1)C2
inactive: [5] 94 % of control | [6] 94 % of control | [7] 87 % of control

Cn1c2ccccc2c(=O)c2c(O)cc3c(c21)N=CC(C)(C)O3
inactive: [8] 96 % of control | dose: 120.0 mg/kg/injection, schedule: Q01DX005 (ip), vehicle: saline with Tween-80 93 % of control | [9] 93 % of control

CN(C)CCOCC(O)(c1ccccc1)c1ccccc1
inactive: dose: 50.0 mg/kg/injection, schedule: Q01DX009 (ip), vehicle: suspension in saline 100 % of control | dose: 100.0 mg/kg/injection, schedule: Q01DX009 (ip), vehicle: suspension in saline 103 % of control

Cc1cc(C2c3ccccc3-c3ccccc32)cc(C)c1O
inactive: dose: 1.87 mg/kg/injection, schedule: Q01DX005 (ip), vehicle: saline with Tween-80 90 % of control | dose: 3.75 mg/kg/injection, schedule: Q01DX005 (ip), vehicle: saline with Tween-80 97 % of control | dose: 7.5 mg/kg/injection, schedule: Q01DX005 (ip), vehicle: saline with Tween-80 91 % of control | dose: 15.0 mg/kg/injection, schedule: Q01DX005 (ip), vehicle: saline with Tween-80 91 % of control | [8] 90 % of control | [9] 92 % of control

c1ccc(-c2cc[n+]3c4c2ccc2c(-c5ccccc5)cc[n+](c24)CC3)cc1
inactive: dose: 6.25 mg/kg/injection, schedule: Q01DX009 (ip), vehicle: saline 99 % of control | dose: 12.5 mg/kg/injection, schedule: Q01DX009 (ip), vehicle: saline 98 % of control and 100 % of control | dose: 25.0 mg/kg/injection, schedule: Q01DX009 (ip), vehicle: saline 104 % of control and 117 % of control

COC1=CC(=O)C(C(C)=O)=C(C#N)C1=O
inactive: dose: 100.0 mg/kg/injection, schedule: Q04DX002 (ip), vehicle: saline with Tween-80 100 % of control | dose: 200.0 mg/kg/injection, schedule: Q04DX002 (ip), vehicle: saline with Tween-80 100 % of control | dose: 400.0 mg/kg/injection, schedule: Q04DX002 (ip), vehicle: saline with Tween-80 90 % of control

NC(Cc1ccccc1)C(=O)CCl (stereo not given)
inactive: dose: 12.5 mg/kg/injection, schedule: Q01DX001 (ip), vehicle: saline 104 % of control | dose: 25.0 mg/kg/injection, schedule: Q01DX001 (ip), vehicle: saline 100 % of control

CC1(C)CCC2(C(=O)OC3OC(CO)C(O)C(O)C3O)CCC3(C)C(=CCC4C5(C)CCC(OC6OC(CO)C(O)C(OC7OC(CO)C(O)C(O)C7O)C6O)C(C)(C)C5CCC43C)C2C1 (stereo not given)
inactive: dose: 6.25 mg/kg/injection, schedule: Q01DX005 (ip), vehicle: Klucel (hydroxypropylcellulose) (HPC) 102 % of control | dose: 12.5 mg/kg/injection, schedule: Q01DX005 (ip), vehicle: Klucel (hydroxypropylcellulose) (HPC) 98 % of control | [1] 116 % of control | [2] 105 % of control

CCOC(=O)C(=O)Nc1ccccc1
inactive: [6] 99 % of control | [7] 97 % of control | dose: 400.0 mg/kg/injection, schedule: Q01DX009 (ip), vehicle: saline with Tween-80 99 % of control
